Experimental data: ChEMBL document CHEMBL5634112, “Synthesis and biological evaluation of fluoroquinolones containing a pyridoxine derivatives moiety” (Eur J Med Chem, 2023)
Converted amounts (≈) assume the structure as drawn.

How the values were obtained:
Micrococcus luteus = assay: Antibacterial activity against clinical isolate Micrococcus luteus assessed as reduction in microbial growth incubated for 24 hrs by broth microdilution method; assay type: functional
Staphylococcus aureus [1] = assay: Antibacterial activity against clinical isolate Staphylococcus aureus 4721 assessed as reduction in microbial growth incubated for 24 hrs by broth microdilution method; assay type: functional
Bacillus subtilis = assay: Antibacterial activity against Bacillus subtilis 168 assessed as reduction in microbial growth incubated for 24 hrs by broth microdilution method; assay type: functional
Staphylococcus aureus [2] = assay: Antibacterial activity against methicillin sensitive Staphylococcus aureus ATCC 29213 assessed as reduction in microbial growth incubated for 24 hrs by broth microdilution method; assay type: functional
[3] = system: Staphylococcus epidermidis; assay: Antibacterial activity against clinical isolate Staphylococcus epidermidis assessed as reduction in microbial growth incubated for 24 hrs by broth microdilution method; assay type: functional
Pseudomonas aeruginosa [4] = assay: Antibacterial activity against Pseudomonas aeruginosa ATCC 27853 assessed as reduction in microbial growth incubated for 24 hrs by broth microdilution method; assay type: functional
Escherichia coli [5] = assay: Antibacterial activity against Escherichia coli ATCC 25922 assessed as reduction in microbial growth incubated for 24 hrs by broth microdilution method; assay type: functional
Salmonella typhimurium = assay: Antibacterial activity against Salmonella typhimurium TA100 assessed as reduction in microbial growth incubated for 24 hrs by broth microdilution method; assay type: functional, Salmonella enterica subsp. enterica serovar Typhimurium; conditions: Salmonella enterica
[6] = system: Staphylococcus auricularis; assay: Antibacterial activity against clinical isolate Staphylococcus auricularis NKC 7 assessed as reduction in microbial growth incubated for 24 hrs by broth microdilution method; assay type: functional
[7] = system: Staphylococcus haemolyticus; assay: Antibacterial activity against clinical isolate Staphylococcus haemolyticus NKC 31/2 assessed as reduction in microbial growth incubated for 24 hrs by broth microdilution method; assay type: functional
[8] = system: Staphylococcus epidermidis; assay: Antibacterial activity against clinical isolate Staphylococcus epidermidis NKC 37/1 assessed as reduction in microbial growth incubated for 24 hrs by broth microdilution method; assay type: functional
Staphylococcus aureus [9] = assay: Antibacterial activity against clinical isolate Staphylococcus aureus 1812 assessed as reduction in microbial growth incubated for 24 hrs by broth microdilution method; assay type: functional
Staphylococcus aureus [10] = assay: Antibacterial activity against clinical isolate methicillin resistant Staphylococcus aureus 4771 assessed as reduction in microbial growth incubated for 24 hrs by broth microdilution method; assay type: functional
[11] = system: Staphylococcus haemolyticus; assay: Antibacterial activity against clinical isolate Staphylococcus haemolyticus 1464 assessed as reduction in microbial growth incubated for 24 hrs by broth microdilution method; assay type: functional
Enterococcus faecalis = assay: Antibacterial activity against clinical isolate Enterococcus faecalis 1465 assessed as reduction in microbial growth incubated for 24 hrs by broth microdilution method; assay type: functional
Escherichia coli [12] = assay: Antibacterial activity against clinical isolate Escherichia coli NKC 1 assessed as reduction in microbial growth incubated for 24 hrs by broth microdilution method; assay type: functional
Pseudomonas aeruginosa [13] = assay: Antibacterial activity against clinical isolate Pseudomonas aeruginosa NKC 17 assessed as reduction in microbial growth incubated for 24 hrs by broth microdilution method; assay type: functional
Cedecea davisae = assay: Antibacterial activity against clinical isolate Cedecea davisae 1813 assessed as reduction in microbial growth incubated for 24 hrs by broth microdilution method; assay type: functional
Klebsiella pneumoniae = assay: Antibacterial activity against clinical isolate Klebsiella pneumoniae 1678 assessed as reduction in microbial growth incubated for 24 hrs by broth microdilution method; assay type: functional
Klebsiella aerogenes = assay: Antibacterial activity against clinical isolate Enterobacter aerogenes NKC 8 assessed as reduction in microbial growth incubated for 24 hrs by broth microdilution method; assay type: functional
[14] = Cytotoxicity against human CHL assessed as reduction in cell viability incubated for 72 hrs by MTT assay; assay type: toxicity, cell-based; conditions: CHL cells
[15] = Cytotoxicity against human HSF assessed as reduction in cell viability incubated for 72 hrs by MTT assay; assay type: toxicity, cell-based; conditions: HSF cells
[16] = Cytotoxicity against human MSC assessed as reduction in cell viability incubated for 72 hrs by MTT assay; assay type: toxicity, cell-based; conditions: MSC cells

| SMILES | MIC (Micrococcus luteus) | MIC (Staphylococcus aureus [1]) | MIC (Bacillus subtilis) | MIC (Staphylococcus aureus [2]) | MIC [3] | MIC (Pseudomonas aeruginosa [4]) | MIC (Escherichia coli [5]) | MIC (Salmonella typhimurium) | MIC [6] | MIC [7] | MIC [8] | MIC (Staphylococcus aureus [9]) | MIC (Staphylococcus aureus [10]) | MIC [11] | MIC (Enterococcus faecalis) | MIC (Escherichia coli [12]) | MIC (Pseudomonas aeruginosa [13]) | MIC (Cedecea davisae) | MIC (Klebsiella pneumoniae) | MIC (Klebsiella aerogenes) | other results |
| --- | --- | --- | --- | --- | --- | --- | --- | --- | --- | --- | --- | --- | --- | --- | --- | --- | --- | --- | --- | --- | --- |
| Cc1ncc(CN2CCN(c3cc4c(cc3F)c(=O)c(C(=O)O)cn4C3CC3)CC2)c2c1OCOC2.Cl | 16 µg/mL | 0.13 µg/mL | 2 µg/mL | 1 µg/mL | 0.5 µg/mL | 32 µg/mL | 8 µg/mL | 0.5 µg/mL | 0.03 µg/mL | 8 µg/mL | 0.25 µg/mL | 0.25 µg/mL | 2 µg/mL | 0.13 µg/mL | 8 µg/mL | 2 µg/mL | 32 µg/mL | 0.03 µg/mL | 16 µg/mL | 16 µg/mL | CC50 at 72 h [14]: 14.9 µg/mL; CC50 at 72 h [15]: 40.3 µg/mL; CC50 at 72 h [16]: 69.5 µg/mL |
| CCn1cc(C(=O)O)c(=O)c2cc(F)c(N3CCN(Cc4cnc(C)c5c4COCO5)CC3)cc21.Cl | 4 µg/mL | 1 µg/mL | 2 µg/mL | 2 µg/mL | 2 µg/mL | > 64 µg/mL | 4 µg/mL | 2 µg/mL | 0.03 µg/mL | 8 µg/mL | 2 µg/mL | 2 µg/mL | 1 µg/mL | 1 µg/mL | 32 µg/mL | 0.13 µg/mL | 2 µg/mL | 0.25 µg/mL | 4 µg/mL | 1 µg/mL | CC50 at 72 h [14]: 9.78 µg/mL; CC50 at 72 h [15]: 23.4 µg/mL; CC50 at 72 h [16]: 21.2 µg/mL |
| CCn1cc(C(=O)O)c(=O)c2cc(F)c(N3CCNCC3)cc21 [NORFLOXACIN] | 8 µg/mL | 1 µg/mL | 1 µg/mL | 2 µg/mL | 1 µg/mL | 4 µg/mL | 1 µg/mL | 1 µg/mL | 0.13 µg/mL | 8 µg/mL | 4 µg/mL | 2 µg/mL | 1 µg/mL | 2 µg/mL | > 64 µg/mL | 0.06 µg/mL | 0.25 µg/mL | 1 µg/mL | 1 µg/mL | 1 µg/mL | CC50 at 72 h [14]: 38.1 µg/mL (≈ 119 µM); CC50 at 72 h [15]: 38.1 µg/mL (≈ 119 µM); CC50 at 72 h [16]: 29.3 µg/mL (≈ 91.9 µM) |
| COc1c(N2C[C@@H]3CCCN(Cc4nc(C)c(O)c(CO)c4CO)[C@@H]3C2)c(F)cc2c(=O)c(C(=O)O)cn(C3CC3)c12.Cl | 2 µg/mL | 0.5 µg/mL | 2 µg/mL | 2 µg/mL | 2 µg/mL | > 64 µg/mL | > 64 µg/mL | 2 µg/mL | 0.03 µg/mL | 8 µg/mL | 0.25 µg/mL | 0.5 µg/mL | 0.25 µg/mL | 0.5 µg/mL | 4 µg/mL | 2 µg/mL | 32 µg/mL | 0.25 µg/mL | 64 µg/mL | 4 µg/mL | CC50 at 72 h [14]: 24.2 µg/mL; CC50 at 72 h [15]: 33.9 µg/mL; CC50 at 72 h [16]: 31.7 µg/mL |
| Cc1ncc(CN2CCN(c3cc4c(cc3F)c(=O)c(C(=O)O)cn4C3CC3)CC2)c(C)c1O.Cl | 0.5 µg/mL | 0.5 µg/mL | 0.5 µg/mL | 0.5 µg/mL | 0.5 µg/mL | 32 µg/mL | 1 µg/mL | 1 µg/mL | 0.06 µg/mL | 16 µg/mL | 0.5 µg/mL | 1 µg/mL | 0.5 µg/mL | 0.5 µg/mL | 16 µg/mL | 0.13 µg/mL | 16 µg/mL | 0.5 µg/mL | 16 µg/mL | 1 µg/mL | CC50 at 72 h [14]: 14.2 µg/mL; CC50 at 72 h [15]: 27.6 µg/mL; CC50 at 72 h [16]: 25.1 µg/mL |
| Cc1nc(CO)c(CN2CCN(c3cc4c(cc3F)c(=O)c(C(=O)O)cn4C3CC3)CC2)c(CO)c1O.Cl | 2 µg/mL | 2 µg/mL | 4 µg/mL | 0.5 µg/mL | 8 µg/mL | > 64 µg/mL | 64 µg/mL | 4 µg/mL | 0.25 µg/mL | 16 µg/mL | 1 µg/mL | 4 µg/mL | 2 µg/mL | 4 µg/mL | 32 µg/mL | 0.5 µg/mL | 16 µg/mL | 1 µg/mL | 8 µg/mL | 2 µg/mL | CC50 at 72 h [14]: 31.8 µg/mL; CC50 at 72 h [15]: 38 µg/mL; CC50 at 72 h [16]: 52.6 µg/mL |
| CCCC1OCc2c(CN3CCC[C@H]4CN(c5c(F)cc6c(=O)c(C(=O)O)cn(C7CC7)c6c5OC)C[C@H]43)cnc(C)c2O1 (stereo not given in full) | 2 µg/mL | 2 µg/mL | 2 µg/mL | 2 µg/mL | 2 µg/mL | > 64 µg/mL | > 64 µg/mL | 4 µg/mL | 0.13 µg/mL | 64 µg/mL | 4 µg/mL | 4 µg/mL | 4 µg/mL | 2 µg/mL | 64 µg/mL | 4 µg/mL | > 64 µg/mL | 2 µg/mL | > 64 µg/mL | 64 µg/mL | CC50 at 72 h [14]: 2.46 µg/mL (≈ 4.05 µM); CC50 at 72 h [15]: 2.34 µg/mL (≈ 3.86 µM); CC50 at 72 h [16]: 2.91 µg/mL (≈ 4.8 µM) |
| CCn1cc(C(=O)O)c(=O)c2cc(F)c(N3CCN(Cc4cnc(C)c(O)c4CO)C(C)C3)c(F)c21.Cl (stereo not given) | 0.5 µg/mL | 1 µg/mL | 0.5 µg/mL | 2 µg/mL | 1 µg/mL | 4 µg/mL | 8 µg/mL | 2 µg/mL | 0.13 µg/mL | 16 µg/mL | 1 µg/mL | 1 µg/mL | 1 µg/mL | 1 µg/mL | 8 µg/mL | 2 µg/mL | > 64 µg/mL | 2 µg/mL | > 64 µg/mL | 8 µg/mL | CC50 at 72 h [14]: 7.85 µg/mL; CC50 at 72 h [15]: 22.3 µg/mL; CC50 at 72 h [16]: 13.1 µg/mL |
| COc1c(N2C[C@@H]3CCCN(Cc4cnc(C)c5c4COCO5)[C@@H]3C2)c(F)cc2c(=O)c(C(=O)O)cn(C3CC3)c12.Cl | 8 µg/mL | 0.03 µg/mL | 2 µg/mL | 2 µg/mL | 16 µg/mL | 64 µg/mL | 2 µg/mL | 2 µg/mL | 0.03 µg/mL | 1 µg/mL | 0.03 µg/mL | 0.06 µg/mL | 0.03 µg/mL | 0.03 µg/mL | 1 µg/mL | 4 µg/mL | > 64 µg/mL | 0.03 µg/mL | > 64 µg/mL | > 64 µg/mL | CC50 at 72 h [14]: 2.34 µg/mL; CC50 at 72 h [15]: 5.8 µg/mL; CC50 at 72 h [16]: 9.62 µg/mL |
| COc1c(N2C[C@@H]3CCCN(Cc4c(CO)nc(C)c(O)c4CO)[C@@H]3C2)c(F)cc2c(=O)c(C(=O)O)cn(C3CC3)c12.Cl | 2 µg/mL | 0.25 µg/mL | 2 µg/mL | 2 µg/mL | 2 µg/mL | > 64 µg/mL | 2 µg/mL | 2 µg/mL | 0.06 µg/mL | 8 µg/mL | 0.25 µg/mL | 0.5 µg/mL | 8 µg/mL | 0.25 µg/mL | 4 µg/mL | 4 µg/mL | 32 µg/mL | 0.5 µg/mL | 64 µg/mL | 8 µg/mL | CC50 at 72 h [14]: 17.6 µg/mL; CC50 at 72 h [15]: 35.2 µg/mL; CC50 at 72 h [16]: 20.6 µg/mL |
